Experimental data: patent publication US20230114728A1 (Venatorx Pharmaceuticals, Inc., priority 2019, published 2023)
Converted amounts (≈) assume the structure as drawn.

Key:
[1] = Bocillin-FL fluorescence polarization competition binding assay, A. baumannii PBP3; details: fluorescence polarization competition binding assay using Bocillin-FL; column 3; read-out: 4. baumannii PBP1a Potency
Procedure, shortened: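 A. baumannii PBP2 (2.5 μM) and PBP3 (0.2 μM) were run in 25 mM Tris pH 8.0 buffer with Tween 20; E. coli PBP3 (1.5 μM) and N. gonorrhoeae PBP2 ([…]) in 50 mM Hepes pH 8.0 buffer.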

[2] = test system: A. baumannii ATCC 19606; experiment: Broth microdilution MIC in iron-depleted CAMHB (IDM); type: cell-based; details: Acinetobacter baumannii, ATCC19606, read-out: Minimum Inhibitory Concentration, ATCC 19606
Procedure, shortened: (§1)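 CLSI broth microdilution in iron-depleted CAMHB (Chelex 100-treated, Ca, Mg and 10 μM Zn re-added, pH 7.3). Inoculum was 2-8×10^5 CFU/mL from 3-5 h IDM cultures. Plates were incubated at 37° C for 20-24 h (Acinetobacter) or 16-20 h (Pseudomonas), and MIC was read visually as the lowest concentration without growth.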

[3] = test system: P. aeruginosa (ΔmexAB-oprM); experiment: as above; type: cell-based; details: Pseudomonas aeruginosa, read-out: Minimum Inhibitory Concentration, P. aeruginosa ΔmexAB-OprM
Procedure, shortened: as §1

[4] = test system: P. aeruginosa ATCC 27853; experiment: as above; type: cell-based; details: Pseudomonas aeruginosa, ATCC27853, read-out: Minimum Inhibitory Concentration, P. aeruginosa ATCC 27853
Procedure, shortened: as §1

[5] = test system: P. aeruginosa CDC-0095 producing OXA-50, and PAO; experiment: as above; type: cell-based; details: Pseudomonas aeruginosa, read-out: Minimum Inhibitory Concentration, P. aeruginosa CDC-0095
Procedure, shortened: as §1

[6] = test system: A. baumannii CDC-0045 producing TEM-1D, OXA-23, and OXA-69; experiment: as above; type: cell-based; details: Acinetobacter baumannii, read-out: Minimum Inhibitory Concentration, CDC-0045

In the case of `CCN1CCN(C(=O)N[C@@H](C(=O)N[C@H]2Cc3ccc(F)c(C(=O)O)c3OB2O)c2c(Cl)cc(O)c(O)c2F)C(=O)C1=O` (single isomer, unassigned) [Example 207], the EC50 [1] is reported as 10 to 30 µM, the MIC [2] is reported as 0.5 to 1 mg/L (≈ 0.819 to 1.64 µM) and the MIC [3] is reported as 2 to 4 mg/L (≈ 3.27 to 6.55 µM). For the same molecule, the MIC [4] was 2 to 4 mg/L (≈ 3.27 to 6.55 µM), the MIC [5] was 8 to 16 mg/L (≈ 13.1 to 26.2 µM) and the MIC [6] was > 128 mg/L.

With `O=C(NCCCN1CCN(C(=O)NC(C(=O)N[C@H]2Cc3ccc(F)c(C(=O)O)c3OB2O)c2ncc(O)cc2F)C(=O)C1=O)c1ccc(O)c(O)c1Cl` (stereo partly drawn) [Example 3, (3R)-3-(2-(4-(3-(2-chloro-3,4-dihydroxybenzamido)propyl)-2,3-dioxopiperazine-1-carboxamido)-2-(3-fluoro-5-hydroxypyridin-2-yl)acetamido)-7-fluoro-2-hydroxy-3,4-dihydro-2H-benzo[e][1,2]oxaborinine-8-carboxylic acid] the EC50 [1] was < 10 µM, the MIC [2] was 32 to 64 mg/L (≈ 42.1 to 84.1 µM) and the MIC [3] was 0.5 to 1 mg/L (≈ 0.657 to 1.31 µM). The MIC [4] was 2 to 4 mg/L (≈ 2.63 to 5.26 µM), the MIC [5] was 8 to 16 mg/L (≈ 10.5 to 21 µM) and the MIC [6] was 32 to 64 mg/L (≈ 42.1 to 84.1 µM).

For `O=C(NCCCN1CCN(C(=O)NC(C(=O)N[C@H]2Cc3cccc(C(=O)O)c3OB2O)c2ncc(O)cc2F)C(=O)C1=O)c1ccc(O)c(O)c1Cl` (stereo partly drawn) [Example 1, (3R)-3-(2-(4-(3-(2-chloro-3,4-dihydroxybenzamido)propyl)-2,3-dioxopiperazine-1-carboxamido)-2-(3-fluoro-5-hydroxypyridin-2-yl)acetamido)-2-hydroxy-3,4-dihydro-2H-benzo[e][1,2]oxaborinine-8-carboxylic acid], the MIC [2] was 2 to 4 mg/L (≈ 2.69 to 5.38 µM), the MIC [3] was 2 to 4 mg/L (≈ 2.69 to 5.38 µM) and the MIC [4] was 8 to 16 mg/L (≈ 10.8 to 21.5 µM).

Molecule `CCN1CCN(C(=O)N[C@@H](C(=O)N[C@H]2Cc3ccc(F)c(C(=O)O)c3OB2O)c2ccc(O)c(O)c2)C(=O)C1=O` [Example 211, (R)-3-((R)-2-(3,4-dihydroxyphenyl)-2-(4-ethyl-2,3-dioxopiperazine-1-carboxamido)acetamido)-7-fluoro-2-hydroxy-3,4-dihydro-2H-benzo[e][1,2]oxaborinine-8-carboxylic acid] has an EC50 [1] of 30 to 100 µM, an MIC [2] of 2 to 4 mg/L (≈ 3.58 to 7.16 µM) and an MIC [3] of 0.25 mg/L (≈ 0.448 µM). The MIC [4] was 8 to 16 mg/L (≈ 14.3 to 28.7 µM), the MIC [5] was 8 to 16 mg/L (≈ 14.3 to 28.7 µM) and the MIC [6] was > 128 mg/L.

In the case of `CCN1CCN(C(=O)NC(C(=O)N[C@H]2Cc3cccc(C(=O)O)c3OB2O)c2c(F)cc(NC(C)=O)cc2F)C(=O)C1=O` (stereo partly drawn) [Example 188, (3R)-3-(2-(4-acetamido-2,6-difluorophenyl)-2-(4-ethyl-2,3-dioxopiperazine-1-carboxamido)acetamido)-2-hydroxy-3,4-dihydro-2H-benzo[e][1,2]oxaborinine-8-carboxylic acid], the EC50 [1] is reported as < 10 µM.

`CCN1CCN(C(=O)N[C@@H](C(=O)N[C@H]2Cc3cc(Cl)c(F)c(C(=O)O)c3OB2O)c2c(F)cc(O)c(O)c2Cl)C(=O)C1=O` [Example 191, (R)-6-chloro-3-((R)-2-(2-chloro-6-fluoro-3,4-dihydroxyphenyl)-2-(4-ethyl-2,3-dioxopiperazine-1-carboxamido)acetamido)-7-fluoro-2-hydroxy-3,4-dihydro-2H-benzo[e][1,2]oxaborinine-8-carboxylic acid] showed an EC50 [1] of 30 to 100 µM, an MIC [2] of 8 to 16 mg/L (≈ 12.4 to 24.8 µM) and an MIC [3] of 0.25 mg/L (≈ 0.387 µM). The MIC [4] was 2 to 4 mg/L (≈ 3.1 to 6.2 µM), the MIC [5] was 8 to 16 mg/L (≈ 12.4 to 24.8 µM) and the MIC [6] was > 128 mg/L.

In the case of `Nc1nc(/C(=N/OC[C@H](NC(=O)c2ccc(O)c(O)c2Cl)C(=O)O)C(=O)N[C@H]2Cc3cccc(C(=O)O)c3OB2O)cs1` [Example 6, (R)-3-((Z)-2-(2-aminothiazol-4-yl)-2-(((S)-2-carboxy-2-(2-chloro-3,4-dihydroxybenzamido)ethoxy)imino)acetamido)-2-hydroxy-3,4-dihydro-2H-benzo[e][1,2]oxaborinine-8-carboxylic acid], the EC50 [1] is reported as > 100 µM, the MIC [2] is reported as 32 to 64 mg/L (≈ 50.5 to 101 µM) and the MIC [3] is reported as 0.5 to 1 mg/L (≈ 0.789 to 1.58 µM). It also gave an MIC [4] of 0.5 to 1 mg/L (≈ 0.789 to 1.58 µM), an MIC [5] of 2 to 4 mg/L (≈ 3.16 to 6.31 µM) and an MIC [6] of 32 to 64 mg/L (≈ 50.5 to 101 µM).

Molecule `CS(=O)(=O)N1CCN(C(=O)NC(C(=O)N[C@H]2Cc3ccc(F)c(C(=O)O)c3OB2O)c2c(Cl)cc(O)c(O)c2F)C1=O` (stereo partly drawn) [Example 208, (3R)-3-(2-(6-chloro-2-fluoro-3,4-dihydroxyphenyl)-2-(3-(methylsulfonyl)-2-oxoimidazolidine-1-carboxamido)acetamido)-7-fluoro-2-hydroxy-3,4-dihydro-2H-benzo[e][1,2]oxaborinine-8-carboxylic acid] has an EC50 [1] of 30 to 100 µM, an MIC [2] of 2 to 4 mg/L (≈ 3.16 to 6.32 µM) and an MIC [3] of 2 to 4 mg/L (≈ 3.16 to 6.32 µM). The MIC [4] was 2 to 4 mg/L (≈ 3.16 to 6.32 µM), the MIC [5] was 32 to 64 mg/L (≈ 50.6 to 101 µM) and the MIC [6] was > 128 mg/L.

For `O=C(NCCN1CCN(C(=O)NC(C(=O)N[C@H]2Cc3ccc(F)c(C(=O)O)c3OB2O)c2ncc(O)cc2F)C(=O)C1=O)c1c(F)cc(O)c(O)c1Cl` (stereo partly drawn) [Example 5, (3R)-3-(2-(4-(2-(2-chloro-6-fluoro-3,4-dihydroxybenzamido)ethyl)-2,3-dioxopiperazine-1-carboxamido)-2-(3-fluoro-5-hydroxypyridin-2-yl)acetamido)-7-fluoro-2-hydroxy-3,4-dihydro-2H-benzo[e][1,2]oxaborinine-8-carboxylic acid], the EC50 [1] was < 10 µM, the MIC [2] was 0.5 to 1 mg/L (≈ 0.654 to 1.31 µM) and the MIC [3] was 0.25 mg/L (≈ 0.327 µM). The MIC [4] was 0.25 mg/L (≈ 0.327 µM), the MIC [5] was 0.5 to 1 mg/L (≈ 0.654 to 1.31 µM) and the MIC [6] was 2 to 4 mg/L (≈ 2.61 to 5.23 µM).

For `Nc1nc(C(NC(=O)N2CCN(CCNC(=O)c3ccc(O)c(O)c3Cl)C(=O)C2=O)C(=O)N[C@H]2Cc3ccc(F)c(C(=O)O)c3OB2O)c(F)s1` (stereo partly drawn) [Example 4, (3R)-3-(2-(2-amino-5-fluorothiazol-4-yl)-2-(4-(2-(2-chloro-3,4-dihydroxybenzamido)ethyl)-2,3-dioxopiperazine-1-carboxamido)acetamido)-7-fluoro-2-hydroxy-3,4-dihydro-2H-benzo[e][1,2]oxaborinine-8-carboxylic acid], the MIC [2] was 0.5 to 1 mg/L (≈ 0.665 to 1.33 µM), the MIC [3] was 0.25 mg/L (≈ 0.333 µM) and the MIC [4] was 0.25 mg/L (≈ 0.333 µM). For the same molecule, the MIC [5] was 0.5 to 1 mg/L (≈ 0.665 to 1.33 µM) and the MIC [6] was 2 to 4 mg/L (≈ 2.66 to 5.32 µM).

With `NCCN1CCN(C(=O)N[C@@H](C(=O)N[C@H]2Cc3ccc(F)c(C(=O)O)c3OB2O)c2c(F)c(F)c(O)c(O)c2Cl)C(=O)C1=O` [Example 226, (R)-3-((R)-2-(4-(2-aminoethyl)-2,3-dioxopiperazine-1-carboxamido)-2-(2-chloro-5,6-difluoro-3,4-dihydroxyphenyl)acetamido)-7-fluoro-2-hydroxy-3,4-dihydro-2H-benzo[e][1,2]oxaborinine-8-carboxylic acid] the EC50 [1] was > 100 µM, the MIC [2] was 0.5 to 1 mg/L (≈ 0.777 to 1.55 µM) and the MIC [3] was 2 to 4 mg/L (≈ 3.11 to 6.21 µM). For the same molecule, the MIC [4] was 0.5 to 1 mg/L (≈ 0.777 to 1.55 µM), the MIC [5] was 2 to 4 mg/L (≈ 3.11 to 6.21 µM) and the MIC [6] was 8 to 16 mg/L (≈ 12.4 to 24.9 µM).

In the case of `C[C@H]1CN(CCNC(=O)c2ccc(O)c(O)c2Cl)C(=O)C(=O)N1C(=O)NC(C(=O)N[C@H]1Cc2cccc(C(=O)O)c2OB1O)c1ncc(O)cc1F` (stereo partly drawn) [Example 2, (3R)-3-(2-((S)-4-(2-(2-chloro-3,4-dihydroxybenzamido)ethyl)-6-methyl-2,3-dioxopiperazine-1-carboxamido)-2-(3-fluoro-5-hydroxypyridin-2-yl)acetamido)-2-hydroxy-3,4-dihydro-2H-benzo[e][1,2]oxaborinine-8-carboxylic acid], the EC50 [1] is reported as < 10 µM, the MIC [2] is reported as 0.5 to 1 mg/L (≈ 0.673 to 1.35 µM) and the MIC [3] is reported as 0.25 mg/L (≈ 0.337 µM). It also gave an MIC [4] of 2 to 4 mg/L (≈ 2.69 to 5.38 µM), an MIC [5] of 8 to 16 mg/L (≈ 10.8 to 21.5 µM) and an MIC [6] of 2 to 4 mg/L (≈ 2.69 to 5.38 µM).

For `CCN1CCN(C(=O)N[C@H](C(=O)N[C@H]2Cc3ccc(F)c(C(=O)O)c3OB2O)c2ccc(O)c(O)c2)C(=O)C1=O` [Example 210, (R)-3-((S)-2-(3,4-dihydroxyphenyl)-2-(4-ethyl-2,3-dioxopiperazine-1-carboxamido)acetamido)-7-fluoro-2-hydroxy-3,4-dihydro-2H-benzo[e][1,2]oxaborinine-8-carboxylic acid], the EC50 [1] was > 100 µM, the MIC [2] was > 128 mg/L and the MIC [3] was 8 to 16 mg/L (≈ 14.3 to 28.7 µM). For the same molecule, the MIC [4] was > 128 mg/L, the MIC [5] was > 128 mg/L and the MIC [6] was > 128 mg/L.

With `CS(=O)(=O)N1CCN(C(=O)N[C@@H](C(=O)N[C@H]2Cc3ccc(F)c(C(=O)O)c3OB2O)c2cc(F)c(O)c(O)c2Cl)C1=O` (single isomer, unassigned) [Example 189] the EC50 [1] was 10 to 30 µM, the MIC [2] was 0.5 to 1 mg/L (≈ 0.79 to 1.58 µM) and the MIC [3] was 0.25 mg/L (≈ 0.395 µM). It also gave an MIC [4] of 0.5 to 1 mg/L (≈ 0.79 to 1.58 µM), an MIC [5] of 2 to 4 mg/L (≈ 3.16 to 6.32 µM) and an MIC [6] of 2 to 4 mg/L (≈ 3.16 to 6.32 µM).

For `NCCCN1CCN(C(=O)N[C@@H](C(=O)N[C@H]2Cc3cc(Cl)c(F)c(C(=O)O)c3OB2O)c2c(F)cc(O)c(O)c2Cl)C(=O)C1=O` [Example 190, (R)-3-((R)-2-(4-(3-aminopropyl)-2,3-dioxopiperazine-1-carboxamido)-2-(2-chloro-6-fluoro-3,4-dihydroxyphenyl)acetamido)-6-chloro-7-fluoro-2-hydroxy-3,4-dihydro-2H-benzo[e][1,2]oxaborinine-8-carboxylic acid], the EC50 [1] was > 100 µM, the MIC [2] was > 128 mg/L and the MIC [3] was 0.25 mg/L (≈ 0.371 µM). For the same molecule, the MIC [4] was 2 to 4 mg/L (≈ 2.97 to 5.93 µM), the MIC [5] was 8 to 16 mg/L (≈ 11.9 to 23.7 µM) and the MIC [6] was > 128 mg/L.

For `CCN1CCN(C(=O)N[C@@H](C(=O)N[C@H]2Cc3cccc(C(=O)O)c3OB2O)c2c(O)cc(O)cc2F)C(=O)C1=O` (single isomer, unassigned) [Example 182], the EC50 [1] was > 100 µM.
